This is an account of results in US20110306636A1, “OXAZOLE PYRIDINE DERIVATIVES USEFUL AS S1P1 RECEPTOR AGONISTS” (Merck Serono SA, priority 2009, published 2011).

One test addresses S1P1 (Homo sapiens, UniProt P21453). The test can be described thus: Receptor binding assay, [33P]sphingosine 1-phosphate competition, S1P1. On the procedure:
(§1) Membranes Preparation: Membranes were prepared from CHO cells expressing S1P1 or S1P3 for use in ligand and 35S-GTPγS binding studies. Cells were suspended in 50 mM TRIS, pH 7.4, 2 mM EDTA, 250 mM Sucrose (buffer A) and 1× Complete protease inhibitor cocktail (Roche), and disrupted at 4° C. by N2 decompression using a cell disruption bomb (Parr Instrument). Following centrifugation at 1000 RPM for 10 min at 4° C., the supernatant was diluted (2×) in buffer A and centrifuged again at 19000 RPM for 75 min at 4° C. The pellet was then suspended in 10 mM HEPES, pH 7.4, 1 mM EDTA, 250 mM Sucrose (Buffer B), and 1× Complete EDTA-free protease inhibitor cocktail and homogenized using a potter. Membranes were flash frozen in liquid N2 and stored at −80° C.
(§2) Receptor binding assay: [33P]sphingosine 1-phosphate (3000 Ci/mmol; American Radiolabeled Chemicals, Inc.) was added to test compounds in 20% DMSO by competition. Membranes and WGA SPA beads (GE Healthcare) were added to give a final volume of 100 μl in 96-well plates or 50 μl in 384-well plates with assay concentrations of 30 pM or 15 pM [33P]sphingosine 1-phosphate (respectively for S1P1 or S1P3), 50 mM HEPES, pH 7.5, 5 mM MgCl2, 100 mM NaCl, 0.4% fatty acid-free BSA, 1-5 μg/well of proteins in 96-well plates vs 0.6-1 μg/well of proteins in 384-well plates and 100 μg/well of WGA SPA beads in 96-well plates vs 75 μg/well of WGA SPA beads in 384-well plates. Binding was performed for 60 min at RT on a shaker and bound radioactivity was measured on a PerkinElmer 1450 MicroBeta counter. Triplicate samples were averaged and normalized as purcentage of inhibition relative to total binding (only DMSO in well) and non specific binding (1000-fold excess of unlabeled S1P). Binding data were analyzed using the GraphPad Prism program or Genedata software.

A further test concerns the target S1P3 (Homo sapiens, UniProt Q99500). The test is described as follows: Receptor binding assay, [33P]sphingosine 1-phosphate competition, S1P3. How it is done: as §1, §2
Test [1] concerns the target T1, human S1P1 Receptor fused to the green fluorescent protein (EGFP) (Homo sapiens, UniProt P21453).
T1 construct: host or cells: U2OS (human bone osteosarcoma epithelial cells), CMV promoter, geneticin selection
The test is described as follows: Internalization of S1P1 in S1P1-U2OS cells by cell imaging analysis. Format: cell-based. Particulars: 1 hour incubation, 384-well. On the procedure:
Cellular Functional Assays: Internalization of Sphingosine-1-Phosphate Receptor 1 (S1P1) in a Human Cell Line (U2OS) in a 384-Well Format Using a Cell Imaging Analysis.
The S1P1 internalization assay was performed in 384 well plates (Corning® 384 black with clear bottom 3712) using S1P1-U2OS cells from BioImage (C039A), a human epithelial cell line (Human Bone Osteosarcoma Epithelial Cells). These cells expressed the human S1P1 Receptor fused to the green fluorescent protein (EGFP). A standard CMV promoter (cytomegalovirus promoter) controls the expression of S1P1-EGFP and continuous expression was maintained by addition of geneticin to the culture medium.
S1P1 Receptor desensitization induced the internalization of the membrane-localized S1P1-EGFP fusion protein to endosomes, which can be monitored by cell imaging analysis.
The cells are plated in low serum medium (Dulbecco's Modified Eagle Medium (DMEM) with Glutamax-1 and high glucose, 1% Penicillin/Streptomycin, 1% Fetal Calf Serum (FCS), 0.5 mg/ml Geneticin) overnight.
The next day, S1P1-U2OS cells are incubated in 20 μl serum free medium (DMEM with Glutamax-1 and high glucose, 0.1% of fatty-acid free Bovin Serum Albumin (BSA), 10 mM, N′-2-Hydroxyethylpiperazine-N′-2 ethanesulphonic acid (HEPES) 1M) for 2 hours at 37° C./5% CO2.
The cells are then treated with 4 μl compounds/agonists (6×/3% DMSO) for a total volume of 24 μl, and plates are incubated for 1 hour at 37° C./5% CO2.
S1P1-U2OS cells are fixed with 25 μl Paraformaldehyde 8% and stained with Hoechst 33345 dye (1:1000) for 20 minutes.
They were then washed 3 times with Phosphate Buffered Saline (PBS) and plates are sealed.
The internalization of the receptor S1P1-EGFP is measured on Cellomics by calculating the “spot count per object” (“object” corresponds to nuclear and “spot” corresponds to S1P1-EGFP receptor). Internalization data were observed thanks to vHCS View and analyzed using Genedata® software.

[2] abbreviates: 96 well-plate, read-out: S1P1 binding IC50 (M) (96 well-plate).
Setting [3] is: 96 well-plate, read-out: S1P3 binding IC50 (M) (96 well-plate).
[4] abbreviates: 384 well-plate, read-out: S1P1 binding IC50 (M) (384 well-plate).
Setting [5] is: 384 well-plate, read-out: S1P3 binding IC50 (M) (384 well-plate).

Where a name gives a salt, the structure may show the parent alone. Read-outs that look alike come from different tables or passages of the source.

Sequence of S1P1 (P21453 whole entry, species assumed): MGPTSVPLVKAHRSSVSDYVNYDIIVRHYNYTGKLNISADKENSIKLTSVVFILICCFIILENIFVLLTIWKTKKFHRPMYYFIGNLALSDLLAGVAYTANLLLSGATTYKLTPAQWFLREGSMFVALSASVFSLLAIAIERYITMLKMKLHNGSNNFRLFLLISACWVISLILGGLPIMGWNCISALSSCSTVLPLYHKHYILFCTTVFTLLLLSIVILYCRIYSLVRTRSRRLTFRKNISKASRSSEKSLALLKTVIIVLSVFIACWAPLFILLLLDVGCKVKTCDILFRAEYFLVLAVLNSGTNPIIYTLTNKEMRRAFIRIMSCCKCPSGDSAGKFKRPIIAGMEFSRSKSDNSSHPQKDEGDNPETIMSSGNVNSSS
Sequence of S1P3 (Q99500 whole entry, species assumed, the tested form may be a part): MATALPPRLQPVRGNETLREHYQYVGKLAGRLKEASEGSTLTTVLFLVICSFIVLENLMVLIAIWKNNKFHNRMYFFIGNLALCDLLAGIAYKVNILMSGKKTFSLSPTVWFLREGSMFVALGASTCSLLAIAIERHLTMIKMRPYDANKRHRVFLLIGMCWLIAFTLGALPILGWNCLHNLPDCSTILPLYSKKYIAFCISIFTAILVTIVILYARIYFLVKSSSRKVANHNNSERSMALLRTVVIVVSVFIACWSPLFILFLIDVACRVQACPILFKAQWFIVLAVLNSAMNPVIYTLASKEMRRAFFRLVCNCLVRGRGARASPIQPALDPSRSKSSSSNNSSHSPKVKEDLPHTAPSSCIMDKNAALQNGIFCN
T1 sequence (P21453 with tags, fused parts or gaps): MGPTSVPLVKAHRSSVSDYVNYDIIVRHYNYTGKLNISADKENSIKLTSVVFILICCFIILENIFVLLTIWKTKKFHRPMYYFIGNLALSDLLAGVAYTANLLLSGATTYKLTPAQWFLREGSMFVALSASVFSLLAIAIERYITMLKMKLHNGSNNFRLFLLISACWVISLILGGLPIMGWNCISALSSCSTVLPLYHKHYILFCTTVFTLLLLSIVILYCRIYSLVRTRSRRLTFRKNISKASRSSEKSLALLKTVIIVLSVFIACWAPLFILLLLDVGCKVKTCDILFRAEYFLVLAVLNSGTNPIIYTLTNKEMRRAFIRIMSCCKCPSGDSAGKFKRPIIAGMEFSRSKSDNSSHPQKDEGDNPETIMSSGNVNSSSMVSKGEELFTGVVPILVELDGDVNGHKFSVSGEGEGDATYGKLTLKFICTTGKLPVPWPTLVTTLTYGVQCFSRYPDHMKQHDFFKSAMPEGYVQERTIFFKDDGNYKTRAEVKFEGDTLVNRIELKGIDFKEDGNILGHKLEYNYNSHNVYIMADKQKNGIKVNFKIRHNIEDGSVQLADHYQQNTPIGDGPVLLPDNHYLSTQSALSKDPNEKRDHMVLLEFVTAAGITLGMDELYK

With `COCc1cc(-c2nc(-c3cnc(NCCC(=O)O)c(C)c3)no2)ccc1-c1ccccc1F` [Example 53, N-(5-{5-[2′-fluoro-2-(methoxymethyl)biphenyl-4-yl]-1,2,4-oxadiazol-3-yl}-3-methylpyridin-2-yl)-beta-alanine, hydrochloride salt], the IC50 is 6.38e-09 M at S1P1 (setting [2]) and 3.1e-06 M on S1P3 (setting [3]). Besides, in test [1], it took 0.0992 µM to reach a half-maximal effect (EC50).
Consider `COCc1cc(-c2nc(-c3cnc(NCCC(=O)O)c(Cl)c3)no2)ccc1-c1cccc(F)c1C` [Example 72, N-(3-chloro-5-{5-[3′-fluoro-2-(methoxymethyl)-2′-methylbiphenyl-4-yl]-1,2,4-oxadiazol-3-yl}pyridin-2-yl)-beta-alanine, hydrochloride salt], for which the IC50 on S1P1 (setting [4]) worked out at 8.69e-09 M; on S1P3 (setting [5]), 3.78e-06 M. This molecule also yielded an EC50 in test [1] of 0.0233 µM.
Regarding `COCc1cc(-c2nc(-c3ccc(NCCCCO)nc3)no2)ccc1-c1ccccc1C` [Example 51, 4-[(5-{5-[2-(methoxymethyl)-2′-methylbiphenyl-4-yl]-1,2,4-oxadiazol-3-yl}pyridin-2-yl)amino]butan-1-ol, hydrochloride salt], the results for the IC50 at S1P1 (setting [2]), at S1P3 (setting [3]) and on S1P3 (setting [5]) were 1.05e-08 M, 1.79e-05 M and 2e-05 M, respectively. In test [1], it took 0.0853 µM to reach a half-maximal effect (EC50).
Take `COCc1cc(-c2nc(-c3ccnc(CNCC(=O)O)c3)no2)ccc1-c1ccccc1C` [Example 69, 2-((4-(5-(2-(methoxymethyl)-2′-methylbiphenyl-4-yl)-1,2,4-oxadiazol-3-yl)pyridin-2-yl)methylamino)acetic acid]: the IC50 at S1P1 (setting [2]) amounted to 2.6e-09 M; at S1P1 (setting [4]) it was 3.19e-09 M; at S1P3 (setting [3]) it was 1.7e-07 M; on S1P3 (setting [5]) it was 1.62e-07 M. The molecule also registered an EC50 in test [1] of 0.0092 µM.
For `CCc1ccccc1-c1ccc(-c2nc(-c3cnc(N)c(Cl)c3)no2)cc1COC` [Example 43, 3-chloro-5-{5-[2′-ethyl-2-(methoxymethyl)biphenyl-4-yl]-1,2,4-oxadiazol-3-yl}pyridin-2-amine], the IC50 on S1P1 (setting [2]) came to 2.44e-09 M; on S1P1 (setting [4]), 4.1e-08 M; at S1P3 (setting [3]), 1.12e-05 M. For the same molecule, the concentration for a half-maximal effect (EC50) in test [1] worked out at 0.0335 µM.
The corresponding values for `COCc1cc(-c2nc(-c3cnc(N)c(Cl)c3)no2)ccc1-c1ccccc1F` [Example 46, 3-chloro-5-{5-[2′-fluoro-2-(methoxymethyl)biphenyl-4-yl]-1,2,4-oxadiazol-3-yl}pyridin-2-amine] are 3.31e-09 M, 4.42e-08 M, 7.21e-06 M and 0.0593 µM.
Turning to `COCc1cc(-c2nc(-c3cnc(NCCCC(=O)O)c(Cl)c3)no2)ccc1-c1ccccc1F` [Example 54, 4-[(3-chloro-5-{5-[2′-fluoro-2-(methoxymethyl)biphenyl-4-yl]-1,2,4-oxadiazol-3-yl}pyridin-2-yl)amino]butanoic acid, hydrochloride salt], the half-inhibitory concentration (IC50) on S1P1 (setting [2]) came to 2.01e-09 M; at S1P3 (setting [3]) it was 9.32e-07 M. Further, in test [1], the EC50 amounted to 0.0164 µM.
`Cc1ccccc1-c1ccc(-c2nc(-c3ccnc(CN(C)CC(=O)O)c3)no2)cc1C(F)(F)F` [Example 75, 2-(((4-(5-(2-(trifluoromethyl)-2′-methylbiphenyl-4-yl)-1,2,4-oxadiazol-3-yl)pyridin-2-yl)methyl)(methyl)amino)acetic acid]: the IC50 at S1P1 (setting [4]) was 9.46e-09 M; on S1P3 (setting [5]), 2.26e-06 M. In test [1], this molecule showed an EC50 of 0.0152 µM.
Regarding `COCc1cc(-c2nc(-c3cnc(NCCCC(=O)O)c(Cl)c3)no2)ccc1-c1ccccc1C` [Example 56, 4-[(3-chloro-5-{5-[2-(methoxymethyl)-2′-methylbiphenyl-4-yl]-1,2,4-oxadiazol-3-yl}pyridin-2-yl)amino]butanoic acid, hydrochloride salt], the IC50 amounted to 1.71e-09 M at S1P1 (setting [2]), 4.77e-09 M on S1P1 (setting [4]), 2.09e-06 M at S1P3 (setting [3]) and 1.71e-06 M at S1P3 (setting [5]). Also, the EC50 in test [1] came to 0.0403 µM.
As for `CC1CCCCN1c1ccc(-c2nc(-c3ccnc(CN(C)CCC(=O)O)c3)no2)cc1C(F)(F)F` (stereo not drawn) [Example 67, 3-(methyl((4-(5-(4-(2-methylpiperidin-1-yl)-3-(trifluoromethyl)phenyl)-1,2,4-oxadiazol-3-yl)pyridin-2-yl)methyl)amino)propanoic acid], the half-maximal inhibitory concentration (IC50) at S1P1 (setting [2]) came to 1.2e-09 M; on S1P3 (setting [3]) it was 1.41e-07 M; at S1P3 (setting [5]) it was 4.68e-07 M. The molecule also gave an EC50 in test [1] of 0.0142 µM.
Regarding `COCc1cc(-c2nc(-c3cnc(NCCC(=O)O)c(C)c3)no2)ccc1-c1ccccc1C` [Example 58, N-(5-{5-[2-(methoxymethyl)-2′-methylbiphenyl-4-yl]-1,2,4-oxadiazol-3-yl}-3-methylpyridin-2-yl)-beta-alanine, hydrochloride salt], the IC50 at S1P1 (setting [2]) came to 2.94e-09 M; on S1P1 (setting [4]), 2.48e-08 M; at S1P3 (setting [3]) it was 9.3e-06 M; at S1P3 (setting [5]), 5.26e-06 M. The molecule also gave an EC50 in test [1] of 0.0455 µM.
The corresponding values for `CC1CCCCN1c1ccc(-c2nc(-c3ccnc(CN(C)CC(=O)O)c3)no2)cc1C(F)(F)F` (stereo not drawn) [Example 66, 2-(methyl((4-(5-(4-(2-methylpiperidin-1-yl)-3-(trifluoromethyl)phenyl)-1,2,4-oxadiazol-3-yl)pyridin-2-yl)methyl)amino)acetic acid] are 3.3e-09 M, 8.68e-09 M, 7.44e-07 M, 1.38e-06 M and 0.0145 µM.
The corresponding values for `COCc1cc(-c2nc(-c3ccc(NCC(O)CO)nc3)no2)ccc1-c1ccccc1C` (stereo not drawn) [Example 45, 3-[(5-{5-[2-(methoxymethyl)-2′-methylbiphenyl-4-yl]-1,2,4-oxadiazol-3-yl}pyridin-2-yl)amino]propane-1,2-diol, hydrochloride salt] are 2.88e-09 M, 1.4e-08 M, 9.31e-06 M, 7.94e-06 M and 0.0224 µM.
Consider `COCc1cc(-c2nc(-c3cnc(NCCCC(=O)O)c(C)c3)no2)ccc1-c1ccccc1C` [Example 57, 4-[(5-{5-[2-(methoxymethyl)-2′-methylbiphenyl-4-yl]-1,2,4-oxadiazol-3-yl}-3-methylpyridin-2-yl)amino]butanoic acid, hydrochloride salt], for which the results for the IC50 on S1P1 (setting [2]), at S1P3 (setting [3]) and at S1P3 (setting [5]) were 5.6e-09 M, 7.44e-06 M and 8.67e-06 M, respectively. In addition, in test [1], the 50% effective concentration (EC50) is 0.0814 µM.
On to `Cc1ccccc1-c1ccc(-c2nc(-c3ccc(CN(C)CC(=O)O)nc3)no2)cc1C(F)(F)F` [Example 74, 2-(methyl((5-(5-(2′-methyl-2-(trifluoromethyl)biphenyl-4-yl)-1,2,4-oxadiazol-3-yl)pyridin-2-yl)methyl)amino)acetic acid], for which the IC50 on S1P1 (setting [4]) came to 7.83e-09 M; on S1P3 (setting [5]), 2.88e-06 M. In addition, the EC50 in test [1] was 0.0179 µM.
